Data from article PMC9570017, “Unorthodox PCNA Binding by Chromatin Assembly Factor 1” (International Journal of Molecular Sciences, 2022).
Read-outs that look alike come from different tables or passages of the source.

What was measured:
[1] = system: replication-coupled chromatin assembly; conditions: ref [18], cited from earlier work
Text: CAF-1 is composed of three subunits, conserved from yeast to human. In humans, mice, and Xenopus, the three subunits of CAF-1 are p150 (CHAF1A), p60 (CHAF1B), and RbAp48 (RBBP4). p150 contains two regions that bind PCNA. The first is a motif located within the N-terminal domain of p150 that we previously referred to as the PCNA binding domain (PBD) (Figure 1A). […] In order to probe this further, we determined the preliminary model of the structure of CAF-1 p150 PIP bound to PCNA based on a molecular replacement solution that could not be refined further. We report here that the CAF-1 PIP binds to PCNA in an unprecedented manner.

[2] = system: PCNA; conditions: in vitro; ref [18]; cited from earlier work
Text: CAF-1 is composed of three subunits, conserved from yeast to human. In humans, mice, and Xenopus, the three subunits of CAF-1 are p150 (CHAF1A), p60 (CHAF1B), and RbAp48 (RBBP4). p150 contains two regions that bind PCNA. The first is a motif located within the N-terminal domain of p150 that we previously referred to as the PCNA binding domain (PBD) (Figure 1A). […] I ... || Similarly, the CAF-1 PIP box sequence of Msh3, which is a part of the DNA mismatch repair machinery, is 19-[…]-41 and in accordance with the canonical sequence, the first PIP box residue corresponds to a glutamine, whereas in contrast, in the PIP box of CAF-1 this is replaced by a lysine at this position, thus making the binding mode of CAF-1 p150 non-canonical and unique in the case of human CAF-1 sequence 442-[…]-449 and mouse CAF-1 sequence 421-[…]-428. Previous research from our lab has also shown that substitution of the CAF-1 p150 lysine by a glutamine to ...

[3] = system: DNA; test: Co-purification with nucleic acid (DNA binding); conditions: purification of p150L; high salt washes combined with benzonase required to remove nucleic acid
Text: An unusually long α-helix (119 amino acids) is predicted to end abruptly in the PIP RFF residues. The CAF-1 p150 PIP is surrounded by a red rectangle. To address this surprising prediction, CAF-1 p150 fragments that contained the predicted long α-helix including the PIP were expressed in E. coli, purified, and their biochemical and biophysical properties were characterized. This fragment of human p150 (Figure 5, residues 342–474) was expressed as a His-tagged fusion protein, hereafter referred to as CAF-1 p150L. […] Further treatment with benzonase and three sequential 1 M NaCl washes were required to remove the contamination.
S2. Expression and purification of p150L in Escherichia coli
A DNA fragment encoding human p150 residues 342-475 was cloned into the pET28a vector (kanamycin resistant) in-frame with a C-terminal 6X-histidine tag. For p150L ex-pression, this plasmid was transformed into Escherichia coli BL21(DE3) RIL cells (Strata-gene). Single colonies were inoculated and grown overnight to saturation at 37°C in 2X YT medium containing 50 µg/ml kanamycin. The next day, cells were diluted and grown to mid-exponential phase (A600nm = 0.6 - 0.8) at 37°C and protein expression was induced at 20°C with 0.5 mM isopropyl-β-D-thiogalactopyranoside (IPTG) for 16 h. […]

[4] = system: PCNA; test: NMR 1H-15N BEST HSQC of 15N-p150L with PCNA; assay type: binding, human; conditions: 50 μM p150L, 400 μM PCNA monomer, 10 mM sodium phosphate pH 7.2, 10 mM NaCl, 293K
Description: NMR experiments were carried out on a 600 MHz Bruker Avance III spectrometer equipped with a 5 mm QCIP cryoprobe with Z gradients. All experiments were carried out at 293K. Two-dimensional ^1H-^15N BEST HSQC [60] experiments were carried out using the sequences downloaded from the NMRlib suite of pulse sequences. Selective shaped pulses were used to excite a ^1H sweep width of 4.5 ppm, centered at 8.75 ppm, with a recycle delay of 0.2 s. ^1H and ^15N sweep widths were set to 8417.509 Hz (14 ppm) and 1920.466 Hz (31.6 ppm) respectively, typically 240 t1 increments were acquired. NMR samples were prepared in 10 mM sodium phosphate buffer, pH 7.2, 10 mM NaCl, and 90% H2O/10% D2O. Uniformly ^15N labelled CAF-1 p150L and unlabeled PCNA were prepared in identical buffers and added together from stock samples. Final sample concentrations were at 50 μM for CAF-1 p150L and 400 μM PCNA monomer. NMR spectra were processed with NMRpipe, a multidimensional spectral system based on UNIX pipes.

[5] = system: PCNA; test: Intrinsic tryptophan fluorescence quenching of PCNA by p150L; assay type: binding, human; conditions: 5 µM PCNA monomer + 20 µM p150L, excitation 280 nm, 10 mM sodium phosphate pH 7.2, 10 mM NaCl, 0.1 mM TCEP, room temperature
Description: Fluorescence experiments were performed on an Agilent Cary Eclipse fluorimeter at room temperature. Buffer conditions were identical for all protein components (10 mM sodium phosphate, pH 7.2, 10 mM NaCl, 0.1 mM TCEP). Samples were excited at A280nm with a 5 nm bandwidth and the emission spectra between 295 nm and 420 nm were collected. Measurements were made for 5 μM PCNA monomer (1 tryptophan residue), 20 μM CAF-1 p150L (no tryptophan and tyrosine residues), and a mixture containing 5 μM PCNA monomer and 20 μM CAF-1 p150L. Both samples were extensively dialyzed against the same buffer and prepared from stock samples to ensure identical conditions.

quenching of PCNA tryptophan fluorescence / binding ([5]; listed as p150L) | Substance | role or effect in chromatin assembly ([1]; listed as CAF-1 PIP) | role or effect in chromatin assembly [1] | binding to PCNA [2] | DNA / nucleic acid binding [3] | NMR signal changes on mixing with PCNA [4] | NMR signal changes on mixing with PCNA ([4]; listed as p150L) | quenching of PCNA tryptophan fluorescence / binding [5]
– | KAEITRFF [PIP of p150] | preferentially inhibit nucleosome assembly over DNA synthesis | essential for chromatin assembly | shows weaker affinity for PCNA | – | – | – | –
weak binding | CAF-1 p150L: fragment of human p150 (residues 342–474) expressed as a His-tagged fusion protein | – | – | – | co-purified with nucleic acid contamination | some of the well-resolved peaks corresponding to CAF-1 p150L disappeared or were significantly shifted | most of the p150L spectrum disappears | quenched a small portion of the tryptophan signal derived from PCNA
